Laboratory results as given in patent US9993494B2, “Compositions and methods for treating fibrotic disease” (eFFECTOR Therapeutics, Inc., priority 2014, dated 2018).

Test system: normal human lung fibroblasts
Assay: Ribosomal profiling: translational efficiency in TGFβ-treated fibroblasts
Assay type: cell-based
Settings: TGFβ-treated fibroblasts
Description: Ribosomal profiling allows for measurement of changes in transcription and translation on a genome-wide basis accompanying TGFβ-dependent transformation of fibroblasts to myofibroblasts. Ribosomal profiles of the TGFβ-treated fibroblasts from Example 1 (about 6×10^6 cells/10 cm plate) were prepared and analyzed for changes in translational efficiencies with respect to potential disease-associated cellular changes accompanying this TGFβ-induced transformation.
Briefly, cells were washed with cold PBS supplemented with cycloheximide and lysed with 1× mammalian cell lysis buffer for 10 minutes on ice. Lysates were clarified by centrifugation for 10 minutes at 14,000 rpm and supernatants were collected. Cell lysates were processed to generate ribosomal protected fragments and total mRNA according to the instructions included with the ARTseq Ribosome Profiling Kit (Illumina, San Diego, Calif.). Sequencing of total RNA (RNA) and of ribosome-protected fragments of RNA (RPF) was carried out using RNA-Seq methodology according to the manufacturer's instructions (Illumina). To analyze the ribosomal profiles, RNA-Seq reads were processed with tools from the FASTX-Toolkit (fastq_quality_trimmer, fastx_clipper and fastx_trimmer). Unprocessed and processed reads were evaluated for a variety of quality measures using FastQC, and processed reads were mapped to the human genome using TopHat (see, e.g., Trapnell et al., Bioinformatics 25:1105, 2009). Gene-by-gene assessment of the number of fragments strictly and uniquely mapping to the coding region of each gene was conducted using HTSeq-count, a component of the HTSeq package. […] Genes with low counts in either RPF or RNA were excluded from differential analyses. Pathway and network analyses of differential data were conducted using Ingenuity Pathway Analysis (IPA).

## Cc1cc(C2CCCCC2)n(O)c(=O)c1.NCCO [CPX, ciclopirox oloamine]
Gene RPS6 (ENSG00000137154)
  effect in renormalizing the translational profile of the gene: − (− = <0.9)
Gene RPS6KA5 (ENSG00000100784)
  effect in renormalizing the translational profile of the gene: − (− = <0.9)
Gene RPS7 (ENSG00000171863)
  effect in renormalizing the translational profile of the gene: − (− = <0.9)
Gene RPS8 (ENSG00000142937)
  effect in renormalizing the translational profile of the gene: − (− = <0.9)
Gene RPS9 (ENSG00000170889)
  effect in renormalizing the translational profile of the gene: − (− = <0.9)
Gene RPS10 (ENSG00000124614)
  effect in renormalizing the translational profile of the gene: − (− = <0.9)
Gene RPS11 (ENSG00000142534)
  effect in renormalizing the translational profile of the gene: − (− = <0.9)
Gene RPS12 (ENSG00000112306)
  effect in renormalizing the translational profile of the gene: − (− = <0.9)
Gene RPS13 (ENSG00000110700)
  effect in renormalizing the translational profile of the gene: − (− = <0.9)
Gene RPS14 (ENSG00000164587)
  effect in renormalizing the translational profile of the gene: − (− = <0.9)
Gene RPS15 (ENSG00000115268)
  effect in renormalizing the translational profile of the gene: − (− = <0.9)
Gene RPS15A (ENSG00000134419)
  effect in renormalizing the translational profile of the gene: − (− = <0.9)
Gene RPS16 (ENSG00000105193)
  effect in renormalizing the translational profile of the gene: − (− = <0.9)
Gene RPS18 (ENSG00000231500)
  effect in renormalizing the translational profile of the gene: − (− = <0.9)
Gene RPS19 (ENSG00000105372)
  effect in renormalizing the translational profile of the gene: − (− = <0.9)
Gene RPS20 (ENSG00000008988)
  effect in renormalizing the translational profile of the gene: − (− = <0.9)
Gene RPS21 (ENSG00000171858)
  effect in renormalizing the translational profile of the gene: − (− = <0.9)
Gene RPS23 (ENSG00000186468)
  effect in renormalizing the translational profile of the gene: − (− = <0.9)
Gene RPS24 (ENSG00000138326)
  effect in renormalizing the translational profile of the gene: − (− = <0.9)
Gene RPS25 (ENSG00000118181)
  effect in renormalizing the translational profile of the gene: − (− = <0.9)
Gene RPS26 (ENSG00000197728)
  effect in renormalizing the translational profile of the gene: − (− = <0.9)
Gene RPS27 (ENSG00000177954)
  effect in renormalizing the translational profile of the gene: − (− = <0.9)
Gene RPS27A (ENSG00000143947)
  effect in renormalizing the translational profile of the gene: − (− = <0.9)
Gene RPS28 (ENSG00000233927)
  effect in renormalizing the translational profile of the gene: + (+ = 0.9 to 1.5)
Gene RPS29 (ENSG00000213741)
  effect in renormalizing the translational profile of the gene: − (− = <0.9)
Gene RPSA (ENSG00000168028)
  effect in renormalizing the translational profile of the gene: − (− = <0.9)
Gene RTN2 (ENSG00000125744)
  effect in renormalizing the translational profile of the gene: − (− = <0.9)
Gene SEMA3A (ENSG00000075213)
  effect in renormalizing the translational profile of the gene: − (− = <0.9)
Gene SGIP1 (ENSG00000118473)
  effect in renormalizing the translational profile of the gene: − (− = <0.9)
Gene SH3BGR (ENSG00000185437)
  effect in renormalizing the translational profile of the gene: − (− = <0.9)
Gene SHC3 (ENSG00000148082)
  effect in renormalizing the translational profile of the gene: +++ (+++ = >2.0)
Gene SLC2A12 (ENSG00000146411)
  effect in renormalizing the translational profile of the gene: − (− = <0.9)
Gene SLC7A7 (ENSG00000155465)
  effect in renormalizing the translational profile of the gene: − (− = <0.9)
Gene SLC15A3 (ENSG00000110446)
  effect in renormalizing the translational profile of the gene: − (− = <0.9)
Gene SLC25A6 (ENSG00000169100)
  effect in renormalizing the translational profile of the gene: − (− = <0.9)
Gene SLC40A1 (ENSG00000138449)
  effect in renormalizing the translational profile of the gene: ++ (++ = 1.5 to 2.0)
Gene SMO (ENSG00000128602)
  effect in renormalizing the translational profile of the gene: − (− = <0.9)
Gene SNRPA (ENSG00000077312)
  effect in renormalizing the translational profile of the gene: − (− = <0.9)
Gene SOX5 (ENSG00000134532)
  effect in renormalizing the translational profile of the gene: − (− = <0.9)
Gene SOX6 (ENSG00000110693)
  effect in renormalizing the translational profile of the gene: − (− = <0.9)
Gene SPATA6 (ENSG00000132122)
  effect in renormalizing the translational profile of the gene: − (− = <0.9)
Gene STAMBPL1 (ENSG00000138134)
  effect in renormalizing the translational profile of the gene: + (+ = 0.9 to 1.5)
Gene STS (ENSG00000101846)
  effect in renormalizing the translational profile of the gene: − (− = <0.9)
Gene SYNE2 (ENSG00000054654)
  effect in renormalizing the translational profile of the gene: − (− = <0.9)
Gene TAF1D (ENSG00000166012)
  effect in renormalizing the translational profile of the gene: − (− = <0.9)
Gene TDG (ENSG00000139372)
  effect in renormalizing the translational profile of the gene: − (− = <0.9)
Gene TEN1 (ENSG00000257949)
  effect in renormalizing the translational profile of the gene: − (− = <0.9)
Gene TET2 (ENSG00000168769)
  effect in renormalizing the translational profile of the gene: − (− = <0.9)
Gene TET3 (ENSG00000187605)
  effect in renormalizing the translational profile of the gene: − (− = <0.9)
Gene TGFBI (ENSG00000120708)
  effect in renormalizing the translational profile of the gene: − (− = <0.9)
Gene THBS3 (ENSG00000169231)
  effect in renormalizing the translational profile of the gene: − (− = <0.9)
Gene THG1L (ENSG00000113272)
  effect in renormalizing the translational profile of the gene: − (− = <0.9)
Gene TIMM9 (ENSG00000100575)
  effect in renormalizing the translational profile of the gene: − (− = <0.9)
Gene TKT (ENSG00000163931)
  effect in renormalizing the translational profile of the gene: − (− = <0.9)
Gene TMTC1 (ENSG00000133687)
  effect in renormalizing the translational profile of the gene: − (− = <0.9)
Gene TOMM7 (ENSG00000196683)
  effect in renormalizing the translational profile of the gene: + (+ = 0.9 to 1.5)
Gene TOP2A (ENSG00000131747)
  effect in renormalizing the translational profile of the gene: − (− = <0.9)
Gene TPGS1 (ENSG00000141933)
  effect in renormalizing the translational profile of the gene: − (− = <0.9)
Gene TPM2 (ENSG00000198467)
  effect in renormalizing the translational profile of the gene: − (− = <0.9)
Gene TPT1 (ENSG00000133112)
  effect in renormalizing the translational profile of the gene: − (− = <0.9)
Gene TRERF1 (ENSG00000124496)
  effect in renormalizing the translational profile of the gene: − (− = <0.9)
Gene UBA52 (ENSG00000221983)
  effect in renormalizing the translational profile of the gene: − (− = <0.9)
Gene UQCRB (ENSG00000156467)
  effect in renormalizing the translational profile of the gene: − (− = <0.9)
Gene UTRN (ENSG00000152818)
  effect in renormalizing the translational profile of the gene: − (− = <0.9)
Gene VIM (ENSG00000026025)
  effect in renormalizing the translational profile of the gene: − (− = <0.9)
Gene ZNF581 (ENSG00000171425)
  effect in renormalizing the translational profile of the gene: − (− = <0.9)
